# From ChEMBL document CHEMBL1201862, “PubChem BioAssay data set” (2004)
#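 The compound was tested at five concentrations on cells cultured in 96-well plates, with a 48-hour exposure period. GI50 = concentration required for 50% inhibition of growth.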 Activity calls are given as the source filed them. Cut-off read from the data, not from the text of the source: active = GI50 up to about 1.1 µM and inactive = higher.
# How the values were obtained:
# Assay in all cases: NCI anticancer screen, dose series, 48 h
# KM-20L2 = test system: KM-20L2
# HCT-15 = test system: HCT-15
# UACC-257 = test system: UACC-257
# SW-620 = test system: SW-620
# SNB-19 = test system: SNB-19
# SK-OV-3 = test system: SK-OV-3
# DLD-1 = test system: DLD-1
# SF-539 = test system: SF-539
# NCI-H23 = test system: NCI-H23
# EKVX = test system: EKVX
# SF-268 = test system: SF-268
# HOP-62 = test system: HOP-62
# CAKI-1 = test system: CAKI-1
# OVCAR-4 = test system: OVCAR-4
# SF-295 = test system: SF-295
# SN12C = test system: SN12C
# U-251 = test system: U-251
# NCI-H460 = test system: NCI-H460
# KM12 = test system: KM12
# TK-10 = test system: TK-10
# A549 = test system: A549
# RXF 393 = test system: RXF 393
# 786-0 = test system: 786-0
# M19-MEL = test system: M19-MEL
# NCI-H226 = test system: NCI-H226
# ACHN = test system: ACHN
# LOX IMVI = test system: LOX IMVI
# M14 = test system: M14
# UO-31 = test system: UO-31
# OVCAR-8 = test system: OVCAR-8
# OVCAR-5 = test system: OVCAR-5
# RPMI-8226 = test system: RPMI-8226
# UACC-62 = test system: UACC-62
# HCT-116 = test system: HCT-116
# SNB-75 = test system: SNB-75
# NCI-H522 = test system: NCI-H522
# MDA-MB-231 = test system: MDA-MB-231
# T47D = test system: T47D
# SK-MEL-28 = test system: SK-MEL-28
# OVCAR-3 = test system: OVCAR-3
# IGROV-1 = test system: IGROV-1
# BT-549 = test system: BT-549
# SK-MEL-2 = test system: SK-MEL-2
# NCI/ADR-RES = test system: NCI/ADR-RES
# HT-29 = test system: HT-29
# MDA-MB-435 = test system: MDA-MB-435
# HL-60 = test system: HL-60
# MCF7 = test system: MCF7
# PC-3 = test system: PC-3
# SR = test system: SR
# A498 = test system: A498
# Malme-3M = test system: Malme-3M
# CCRF-CEM = test system: CCRF-CEM
# SK-MEL-5 = test system: SK-MEL-5
# MOLT-4 = test system: MOLT-4
# MDA-N = test system: MDA-N
# DU-145 = test system: DU-145
# K562 = test system: K562
# COLO 205 = test system: COLO 205
# Hs-578T = test system: Hs-578T
# HOP-92 = test system: HOP-92
# HCC 2998 = test system: HCC 2998
structure (smiles),measurement,setting,value
C/C(=N\NC(=O)c1cccnc1)c1cccc(/C(C)=N/NC(=O)c2cccnc2)n1.CC(=O)[O-].CC(=O)[O-].[Zn+2],GI50,KM-20L2,1.67 µM (inactive)
same,GI50,HCT-15,2.26 µM
same,GI50,UACC-257,5.41 µM (inactive)
same,GI50,SW-620,3.54 µM (inactive)
same,GI50,SNB-19,2.86 µM (inactive)
same,GI50,SK-OV-3,2.22 µM (inactive)
same,GI50,DLD-1,1.68 µM (inactive)
same,GI50,SF-539,1.57 µM (inactive)
same,GI50,NCI-H23,4.01 µM (inactive)
same,GI50,EKVX,2.86 µM (inactive)
same,GI50,SF-268,0.668 µM (active)
same,GI50,HOP-62,1.45 µM (inactive)
same,GI50,CAKI-1,2.64 µM (inactive)
same,GI50,OVCAR-4,0.504 µM (active)
same,GI50,SF-295,2.74 µM (inactive)
same,GI50,SN12C,4.9 µM (inactive)
same,GI50,U-251,1.03 µM (active)
same,GI50,NCI-H460,4.31 µM (inactive)
same,GI50,KM12,3.3 µM (inactive)
same,GI50,TK-10,5.65 µM (inactive)
same,GI50,A549,3.91 µM (inactive)
same,GI50,RXF 393,3.01 µM (inactive)
same,GI50,786-0,4.43 µM (inactive)
same,GI50,M19-MEL,8.45 µM (inactive)
same,GI50,NCI-H226,2.31 µM (inactive)
same,GI50,ACHN,1.52 µM (inactive)
same,GI50,LOX IMVI,1.62 µM (inactive)
same,GI50,M14,4.46 µM (inactive)
same,GI50,UO-31,2.72 µM (inactive)
same,GI50,OVCAR-8,1.62 µM (inactive)
same,GI50,OVCAR-5,4.13 µM (inactive)
same,GI50,RPMI-8226,6.21 µM (inactive)
same,GI50,UACC-62,2.25 µM (inactive)
COc1cc2c(cc1O)[C@@H]1Cc3c(cc(OC)c(OC)c3Oc3cc4c(cc3OC)CCN(C)[C@@H]4Cc3ccc(O)cc3)[C@H](C2)N1C,GI50,HCT-116,48.1 µM (inactive)
same,GI50,HCT-15,> 78.9 µM
same,GI50,SNB-75,20.6 µM (inactive)
same,GI50,UACC-257,23.2 µM (inactive)
same,GI50,SW-620,36.6 µM (inactive)
same,GI50,NCI-H522,27.7 µM (inactive)
same,GI50,MDA-MB-231,43.3 µM (inactive)
same,GI50,SNB-19,> 100 µM (inactive)
same,GI50,SK-OV-3,> 94 µM (inactive)
same,GI50,T47D,36.1 µM (inactive)
same,GI50,SK-MEL-28,18.6 µM (inactive)
same,GI50,SF-539,23.5 µM (inactive)
same,GI50,NCI-H23,> 100 µM (inactive)
same,GI50,EKVX,> 100 µM (inactive)
same,GI50,OVCAR-3,> 100 µM (inactive)
same,GI50,IGROV-1,82.2 µM (inactive)
same,GI50,SF-268,> 78.9 µM (inactive)
same,GI50,HOP-62,> 95.5 µM (inactive)
same,GI50,BT-549,41.2 µM (inactive)
same,GI50,CAKI-1,> 60.3 µM (inactive)
same,GI50,OVCAR-4,33 µM (inactive)
same,GI50,SF-295,46 µM (inactive)
same,GI50,SN12C,> 71.1 µM (inactive)
same,GI50,U-251,46.5 µM (inactive)
same,GI50,SK-MEL-2,22.6 µM (inactive)
same,GI50,NCI/ADR-RES,> 100 µM (inactive)
same,GI50,NCI-H460,53.7 µM (inactive)
same,GI50,HT-29,35.4 µM (inactive)
same,GI50,MDA-MB-435,20.6 µM (inactive)
same,GI50,KM12,45.1 µM (inactive)
same,GI50,HL-60,17.7 µM (inactive)
same,GI50,MCF7,55.5 µM (inactive)
same,GI50,PC-3,36.2 µM (inactive)
same,GI50,SR,13 µM (inactive)
same,GI50,TK-10,> 72.3 µM (inactive)
same,GI50,A498,37 µM (inactive)
same,GI50,A549,> 100 µM (inactive)
same,GI50,Malme-3M,17.1 µM (inactive)
same,GI50,RXF 393,2.1 µM (inactive)
same,GI50,CCRF-CEM,28.6 µM (inactive)
same,GI50,SK-MEL-5,15.8 µM (inactive)
same,GI50,MOLT-4,31 µM (inactive)
same,GI50,786-0,36.6 µM (inactive)
same,GI50,MDA-N,19 µM (inactive)
same,GI50,NCI-H226,> 100 µM (inactive)
same,GI50,ACHN,> 83.2 µM (inactive)
same,GI50,LOX IMVI,18.5 µM (inactive)
same,GI50,DU-145,> 100 µM (inactive)
same,GI50,M14,18.2 µM (inactive)
same,GI50,UO-31,> 84.9 µM (inactive)
same,GI50,OVCAR-8,53 µM (inactive)
same,GI50,OVCAR-5,> 100 µM (inactive)
same,GI50,K562,20.3 µM (inactive)
same,GI50,COLO 205,19.4 µM (inactive)
same,GI50,Hs-578T,46 µM (inactive)
same,GI50,RPMI-8226,27.9 µM (inactive)
same,GI50,HOP-92,37.9 µM (inactive)
same,GI50,UACC-62,> 55.8 µM (inactive)
same,GI50,HCC 2998,31 µM (inactive)
